Test results taken from BindingDB's records for doi:10.7270/Q2TX3CTT (Broad Institute, 2010).
Where a name gives a salt, the structure may show the parent alone.

Target: Glycogen synthase kinase-3 beta (Homo sapiens, UniProt P49841)
Experiment: GSK3beta kinase inhibitor potency, dose response, biochemical, luminescence, cell-free homogeneous, retest (AID 434954)

Chain of Glycogen synthase kinase-3 beta (P49841 whole entry): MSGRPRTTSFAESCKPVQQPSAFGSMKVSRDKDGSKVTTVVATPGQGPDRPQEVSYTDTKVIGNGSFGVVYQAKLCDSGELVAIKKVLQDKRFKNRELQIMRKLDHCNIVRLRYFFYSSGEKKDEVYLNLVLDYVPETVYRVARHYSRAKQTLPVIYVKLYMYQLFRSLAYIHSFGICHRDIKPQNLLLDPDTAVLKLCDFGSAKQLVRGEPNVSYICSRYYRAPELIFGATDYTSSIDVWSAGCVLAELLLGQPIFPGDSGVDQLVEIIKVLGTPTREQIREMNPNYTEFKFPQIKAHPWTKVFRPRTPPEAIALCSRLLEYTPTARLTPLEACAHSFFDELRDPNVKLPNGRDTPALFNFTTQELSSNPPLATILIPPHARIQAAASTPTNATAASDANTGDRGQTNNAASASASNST

Row | EC50 [µM] | Structure (SMILES)
1 | > 300 | NC(=O)c1ncn([C@@H]2O[C@H](CO)[C@@H](O)[C@H]2O)c1O [1-[(2R,3R,4S,5R)-5-(hydroxymethyl)-3,4-bis(oxidanyl)oxolan-2-yl]-5-oxidanyl-imidazole-4-carboxamide]
2 | 18.3 | CSc1nc(NCC(C)O)c2c3c(sc2n1)CN(C)CC3 (stereo unspecified) [1-[(7-methyl-2-methylsulfanyl-6,8-dihydro-5H-pyrido[4,5]thieno[1,2-c]pyrimidin-4-yl)amino]propan-2-ol]
3 | > 300 | CCCOC1CCCN(Cc2cn(C)nc2-c2ccccc2F)C1 (stereo unspecified) [1-[[3-(2-fluorophenyl)-1-methylpyrazol-4-yl]methyl]-3-propoxypiperidine]
4 | > 300 | COc1ccc(-c2nn(-c3ccccc3)cc2C=NNC(=S)NC(C)C)cc1OC [1-[[3-(3,4-dimethoxyphenyl)-1-phenyl-4-pyrazolyl]methylideneamino]-3-propan-2-ylthiourea]
5 | 23.5 | CC(C)Nc1nc(N)c(C(=O)C23CC4CC(CC(C4)C2)C3)s1 [1-adamantyl-[4-azanyl-2-(propan-2-ylamino)-1,3-thiazol-5-yl]methanone]
6 | > 300 | COC(=O)c1cn(NC(=O)c2cccnc2)c(=O)c2ccccc12 [1-keto-2-nicotinamido-isoquinoline-4-carboxylic acid methyl ester]
7 | 48.9 | Cc1cccc(-n2c(=O)c3c4c(sc3n3c(=S)[nH]nc23)CCC4)c1 [1-mercapto-4-(3-methylphenyl)-7,8-dihydro-6H-cyclopenta[4,5]thieno[3,2-e][1,2,4]triazolo[4,3-a]pyrimidin-5(4H)-one]
8 | > 300 | COc1ccc(-n2c(=O)c3c4c(sc3n3c(S)nnc23)CCCC4)cc1 [1-mercapto-4-(4-methoxyphenyl)-6,7,8,9-tetrahydro[1]benzothieno[3,2-e][1,2,4]triazolo[4,3-a]pyrimidin-5(4H)-one]
9 | > 300 | Cc1nn(CC(=O)N2CCN(c3ccccn3)CC2)c(=O)c2cc3sccc3n12 [1-methyl-3-[2-oxidanylidene-2-(4-pyridin-2-ylpiperazin-1-yl)ethyl]thieno[3,4]pyrrolo[3,5-c][1,2,4]triazin-4-one]
10 | > 300 | O=C(Nc1ccccc1)Nc1ccccn1 [1-phenyl-3-pyridin-2-ylurea]
11 | > 300 | CCCn1c(SCC(=O)N2CCCCC2)nnc1-c1ccccn1 [1-piperidin-1-yl-2-[(4-propyl-5-pyridin-2-yl-1,2,4-triazol-3-yl)sulfanyl]ethanone]
12 | 4.96 | O=C(Nc1ccncc1)Nc1ccccn1 [1-pyridin-2-yl-3-pyridin-4-yl-urea]
13 | > 300 | O=[N+]([O-])c1ccc(-n2nnnc2-c2ccccc2)c([N+](=O)[O-])c1 [1-{2,4-bisnitrophenyl}-5-phenyl-1H-tetraazole]
14 | > 300 | CC(=O)c1ccc(Cc2cnc(N)s2)cc1 [1-{4-[(2-amino-1,3-thiazol-5-yl)methyl]phenyl}ethanone]
15 | > 300 | Cc1ccc2nc3c(cc2c1)c(NC(=O)C(C)(C)C)nn3CC(C)C [2,2-dimethyl-N-[6-methyl-1-(2-methylpropyl)pyrazolo[3,4-b]quinolin-3-yl]propanamide]
16 | > 300 | CCCNCC1COc2ccccc2O1 (stereo unspecified) [2,3-dihydro-1,4-benzodioxin-3-ylmethyl(propyl)amine;hydrochloride]
17 | > 300 | CCN1CCN(c2ccc(S(=O)(=O)N3CCOCC3)cc2NC(=O)c2ccc(Cl)cc2Cl)CC1 [2,4-bis(chloranyl)-N-[2-(4-ethylpiperazin-1-yl)-5-morpholin-4-ylsulfonyl-phenyl]benzamide]
18 | > 300 | CC(C)=CCc1c(O)cc(O)c2c(=O)c3c(CC=C(C)C)c(O)ccc3oc12 [2,6,8-trihydroxy-1,5-bis(3-methylbut-2-enyl)xanthen-9-one]

Row | EC50 [µM] | Structure (SMILES)
19 | > 300 | N=C(Cc1nc2ccccc2s1)NO [2-(1,3-benzothiazol-2-yl)-N'-oxidanyl-ethanimidamide]
20 | > 300 | O=C(O)c1ccccc1C(=O)Nc1nccs1 [2-(1,3-thiazol-2-ylcarbamoyl)benzoic acid]
21 | > 300 | CCn1c(=O)cc(OCC(=O)N(C)c2ccccc2F)c2ccccc21 [2-(1-ethyl-2-oxidanylidene-quinolin-4-yl)oxy-N-(2-fluorophenyl)-N-methyl-ethanamide]
22 | > 300 | COc1ccccc1-c1cc2ccccc2[nH]1 [2-(1H-indol-2-yl)phenyl methyl ether]
23 | > 300 | COc1ccc(Cl)cc1NC(=O)CS(=O)(=O)c1cccc2nsnc12 [2-(2,1,3-benzothiadiazol-4-ylsulfonyl)-N-(5-chloranyl-2-methoxy-phenyl)ethanamide]
24 | > 300 | CCc1ccc(NC(=O)C(NS(=O)(=O)c2cccc3nsnc23)c2ccccc2)cc1 (stereo unspecified) [2-(2,1,3-benzothiadiazol-4-ylsulfonylamino)-N-(4-ethylphenyl)-2-phenyl-ethanamide]
25 | 8.32 | CC(=O)N1CCc2c(sc(NC(=O)C3COc4ccccc4O3)c2C(N)=O)C1 (stereo unspecified) [2-(2,3-dihydro-1,4-benzodioxin-3-ylcarbonylamino)-6-ethanoyl-5,7-dihydro-4H-thieno[2,3-c]pyridine-3-carboxamide]
26 | > 300 | COc1ccc(CCNC(=O)CN2CCOc3ccccc32)cc1OC [2-(2,3-dihydro-1,4-benzoxazin-4-yl)-N-[2-(3,4-dimethoxyphenyl)ethyl]acetamide]
27 | > 300 | O=C(CN1C(=O)CCC1=O)Nc1cccc(NC(=O)CN2C(=O)CCC2=O)c1 [2-(2,5-dioxo-1-pyrrolidinyl)-N-[3-[[2-(2,5-dioxo-1-pyrrolidinyl)-1-oxoethyl]amino]phenyl]acetamide]
28 | > 300 | O=C(CN1C(=O)CCC1=O)Nc1ccc(Cc2ccc(NC(=O)CN3C(=O)CCC3=O)cc2)cc1 [2-(2,5-dioxo-1-pyrrolidinyl)-N-[4-[[4-[[2-(2,5-dioxo-1-pyrrolidinyl)-1-oxoethyl]amino]phenyl]methyl]phenyl]acetamide]
29 | 46.5 | C=CCNc1nc(N)c([N+](=O)[O-])c(NCCO)n1 [2-(2-Allylamino-6-amino-5-nitro-pyrimidin-4-ylamino)-ethanol]
30 | > 300 | NC(=O)c1c(NC(=O)CN2CCCC2)sc2c1CCCC2 [2-(2-Pyrrolidin-1-yl-acetylamino)-4,5,6,7-tetrahydro-benzo[b]thiophene-3-carboxylic acid amide]
31 | > 300 | CCN(CC)S(=O)(=O)c1cccc(NC(=O)COc2ccc(Cl)cc2Br)c1 [2-(2-bromanyl-4-chloranyl-phenoxy)-N-[3-(diethylsulfamoyl)phenyl]ethanamide]
32 | > 300 | O=C(COc1ccccc1Cl)Nc1ccc2c(c1)OCCO2 [2-(2-chloranylphenoxy)-N-(2,3-dihydro-1,4-benzodioxin-6-yl)ethanamide]
33 | 1.67 | O=c1cc(-c2ccccc2Cl)oc2cc(O)cc(O)c12 [2-(2-chlorophenyl)-5,7-dihydroxychromen-4-one]
34 | > 300 | O=c1cccc2oc(-c3ccccc3Cl)cc(O)c1-2 [2-(2-chlorophenyl)-5-hydroxy-1-benzopyran-4-one]
35 | > 300 | O=c1cc(-c2ccccc2Cl)oc2ccc([N+](=O)[O-])c(O)c12 [2-(2-chlorophenyl)-5-hydroxy-6-nitrochromen-4-one]
36 | > 300 | CCC(CC)NC(=O)COC(=O)c1ccc2c(c1)C(=O)N(Cc1ccco1)C2=O [2-(2-furanylmethyl)-1,3-dioxo-5-isoindolecarboxylic acid [2-oxo-2-(pentan-3-ylamino)ethyl] ester]
